# Results: patent US4540700A, “Treatment of diabetic complications with certain spiro-imidazolidine-diones” (Alcon Laboratories, Inc., priority 1984, dated 1985)
# System: cataract formation in galactocemic rats
# Experiment: in vivo dose response by intubation (per oral) in galactocemic rats, cataract (vacuole) formation
# Design: species or system Charles River CD (Sprague-Dawley derived) male rats
# Conditions: for Relative Potency (antilog) / log relative potency for eyes with vacuoles or more advanced cataracts: observation day 12, 95% confidence limits
# Protocol: B. In vivo dose response studies were conducted to test the in vivo activity of the following compounds by intubation (per oral) in galactocemic rats on a 30% galactose diet previously described:
# Stock suspensions of the test compounds and all dilutions of the compound were formulated with 0.03% by weight Tween 80.
# Healthy, Charles River CD (outbred albino, Sprague-Dawley derived) male rats, aged 20-30 days, without observable ocular defects and ranging in weight from 35-45 grams, were acclimated to experimental conditions (in quarantine) for two days prior to beginning the study.
# Rats were individually assigned to one of twenty-three groups according to a random number schedule. Two rats, belonging to the same drug-diet treatment group, were housed per cage. Treatment and control groups consisted of six (6) rats each with no replacement in the event of death, and were designated as follows:
# Lenses of all eyes were examined with a hand-held ophthalmoscope in the early stages of cataract development and a penlight for the stages, snowflake-like, snowflake, and nuclear cataract. Lens grading occurred every day for the first ten study days, and then every other day until study Day 14.
# The relative potency determination was made at 7 drug levels over half log dose intervals. The response (percent cataracts formed and/or the time to cataract formation) was plotted against mg/kg and/or moles/kg.
# The study was directed to the suppression and/or elimination of the initial stages of cataract development characterized by vacuoles or snowflake-likeopacities only. It was assumed therefore that suppression and/or elimination of vacuoles or lens opacification by the test drugs affects the transport, absorption and/or metabolism of galactose in such a manner as to prevent subsequent osmotic disturbances normally leading to tissue degeneration and advanced cataract. Advanced cataract defined as stages 2-4 of the Sipple classification was assumed to be of secondary importance to the etiology of cataract inhibition.
# In the event where cataract stage other than vacuole formed, such as snowflake-like opacities, this cataract was counted similarly as vacuole in percent cataract formation.
# This study yielded this expected effect in the control groups.
# All animals were fed Purina Laboratory Chow and water, ad libitum, for the two day acclimation period. All drugs were dosed orally by intubation using an animal feeding needle (Popper and Sons), 18 or 20 gauge, attached to a 1 or 3 ml syringe. Once the dosing time schedule was established, the schedule was followed throughout the study to compensate for any diurnal variation.
# The animals were kept on a twelve hour day/night cycle. The temperature and humidity were determined each day at the scheduled dosing time of 1:00 p.m.
# The animals were weighed every other day and adjustments to dosage amounts to compensate for weight gain were made each day prior to the dose time. All food was routinely withheld from all animal groups for four hours (9:00 a.m.) prior to the drug dose and restored two hours (3:00 p.m.) post-dose. Otherwise sufficient amounts of chow or diet mixture were maintained in the food hopper to allow the animals to eat ad libitum. There were two days of drug dosage with the animals remaining on Purina Laboratory Chow (Days 1 and 2). The 30% galactose diet mixture was introduced to the animals two hours post-dose on Day 3 which constituted Day 1 of the study.
# All eyes were examined with a hand-held ophthalmoscope and/or penlight at the times designated in the Experimental Design section.
# It has been found in previous studies that dilation of the eye with a mydriactic (i.e. Mydriacyl) is not necessary for accurate grading, due to the semi-transparent nature of the rat iris. In the early stages (i.e., grades -, ±, and +) the lens was observed by reflecting the ophthalmoscope beam off the retina back through the lens and iris. Using this technique, vacuoles appear as dark, almost opaque patches. […]
smiles,measurement,setting,value
"O=C1NC(=O)C2(N1)c1cc(F)ccc1-c1ccc(F)cc12 [M, Spiro-[2,7-difluorofluoren-9,4'-imidazolidine]-2',5'-dione]",Percent of Rat Eyes With at Least Vacuoles Formed,"4.0 mg/kg p.o., Day 9",0.0%
same,Percent of Rat Eyes With at Least Vacuoles Formed,"4.0 mg/kg p.o., Day 9, listed as 2,7-difluoro",0%
same,Percent of Rat Eyes With at Least Vacuoles Formed,"4.0 mg/kg p.o., Day 10",0.0%
same,Percent of Rat Eyes With at Least Vacuoles Formed,"4.0 mg/kg p.o., Day 10, listed as 2,7-difluoro",0%
same,Percent of Rat Eyes With at Least Vacuoles Formed,"4.0 mg/kg p.o., Day 12",0.0%
same,Percent of Rat Eyes With at Least Vacuoles Formed,"4.0 mg/kg p.o., Day 12, listed as 2,7-difluoro",0%
same,Percent of Rat Eyes With at Least Vacuoles Formed,"4.0 mg/kg p.o., Day 14",0.0%
same,Percent of Rat Eyes With at Least Vacuoles Formed,"4.0 mg/kg p.o., Day 14, listed as 2,7-difluoro",0%
same,Percent of Rat Eyes With at Least Vacuoles Formed,"12.6 mg/kg p.o., Day 0",0%
same,Percent of Rat Eyes With at Least Vacuoles Formed,"12.6 mg/kg p.o., Day 1",0%
same,Percent of Rat Eyes With at Least Vacuoles Formed,"12.6 mg/kg p.o., Day 2",0%
same,Percent of Rat Eyes With at Least Vacuoles Formed,"12.6 mg/kg p.o., Day 3",0%
same,Percent of Rat Eyes With at Least Vacuoles Formed,"12.6 mg/kg p.o., Day 4",0%
same,Percent of Rat Eyes With at Least Vacuoles Formed,"12.6 mg/kg p.o., Day 5",0%
same,Percent of Rat Eyes With at Least Vacuoles Formed,"12.6 mg/kg p.o., Day 6",0.0%
same,Percent of Rat Eyes With at Least Vacuoles Formed,"12.6 mg/kg p.o., Day 6, listed as 2,7-difluoro",0%
same,Percent of Rat Eyes With at Least Vacuoles Formed,"12.6 mg/kg p.o., Day 7",0.0%
same,Percent of Rat Eyes With at Least Vacuoles Formed,"12.6 mg/kg p.o., Day 7, listed as 2,7-difluoro",0%
same,Percent of Rat Eyes With at Least Vacuoles Formed,"12.6 mg/kg p.o., Day 8",0.0%
same,Percent of Rat Eyes With at Least Vacuoles Formed,"12.6 mg/kg p.o., Day 8, listed as 2,7-difluoro",0%
same,Percent of Rat Eyes With at Least Vacuoles Formed,"12.6 mg/kg p.o., Day 9",0.0%
same,Percent of Rat Eyes With at Least Vacuoles Formed,"12.6 mg/kg p.o., Day 9, listed as 2,7-difluoro",0%
same,Percent of Rat Eyes With at Least Vacuoles Formed,"12.6 mg/kg p.o., Day 10",0.0%
same,Percent of Rat Eyes With at Least Vacuoles Formed,"12.6 mg/kg p.o., Day 10, listed as 2,7-difluoro",0%
same,Percent of Rat Eyes With at Least Vacuoles Formed,"12.6 mg/kg p.o., Day 12",0.0%
same,Percent of Rat Eyes With at Least Vacuoles Formed,"12.6 mg/kg p.o., Day 12, listed as 2,7-difluoro",0%
same,Percent of Rat Eyes With at Least Vacuoles Formed,"12.6 mg/kg p.o., Day 14",0.0%
same,Percent of Rat Eyes With at Least Vacuoles Formed,"12.6 mg/kg p.o., Day 14, listed as 2,7-difluoro",0%
same,Percent of Rat Eyes With at Least Vacuoles Formed,"40 mg/kg p.o., Day 0",0%
same,Percent of Rat Eyes With at Least Vacuoles Formed,"40 mg/kg p.o., Day 1",0%
same,Percent of Rat Eyes With at Least Vacuoles Formed,"40 mg/kg p.o., Day 2",0%
same,Percent of Rat Eyes With at Least Vacuoles Formed,"40 mg/kg p.o., Day 3",0%
same,Percent of Rat Eyes With at Least Vacuoles Formed,"40 mg/kg p.o., Day 4",0%
same,Percent of Rat Eyes With at Least Vacuoles Formed,"40 mg/kg p.o., Day 5",0%
same,Percent of Rat Eyes With at Least Vacuoles Formed,"40 mg/kg p.o., Day 6",0.0%
same,Percent of Rat Eyes With at Least Vacuoles Formed,"40 mg/kg p.o., Day 6, listed as 2,7-difluoro",0%
same,Percent of Rat Eyes With at Least Vacuoles Formed,"40 mg/kg p.o., Day 7",0.0%
same,Percent of Rat Eyes With at Least Vacuoles Formed,"40 mg/kg p.o., Day 7, listed as 2,7-difluoro",0%
same,Percent of Rat Eyes With at Least Vacuoles Formed,"40 mg/kg p.o., Day 8",0.0%
same,Percent of Rat Eyes With at Least Vacuoles Formed,"40 mg/kg p.o., Day 8, listed as 2,7-difluoro",0%
same,Percent of Rat Eyes With at Least Vacuoles Formed,"40 mg/kg p.o., Day 9",0.0%
same,Percent of Rat Eyes With at Least Vacuoles Formed,"40 mg/kg p.o., Day 9, listed as 2,7-difluoro",0%
same,Percent of Rat Eyes With at Least Vacuoles Formed,"40 mg/kg p.o., Day 10",0.0%
same,Percent of Rat Eyes With at Least Vacuoles Formed,"40 mg/kg p.o., Day 10, listed as 2,7-difluoro",0%
same,Percent of Rat Eyes With at Least Vacuoles Formed,"40 mg/kg p.o., Day 12",0.0%
same,Percent of Rat Eyes With at Least Vacuoles Formed,"40 mg/kg p.o., Day 12, listed as 2,7-difluoro",0%
same,Percent of Rat Eyes With at Least Vacuoles Formed,"40 mg/kg p.o., Day 14",0.0%
same,Percent of Rat Eyes With at Least Vacuoles Formed,"40 mg/kg p.o., Day 14, listed as 2,7-difluoro",0%
same,activity in vivo relative to the Sarges compound,rat studies,unexpectedly and significantly more active
same,Relative Potency (antilog),relative to 2-fluoro (L),2.80
same,log relative potency for eyes with vacuoles or more advanced cataracts,relative to 2-fluoro (L),0.4473
same,Relative Potency (antilog),relative to Sarges Racemic,12.92
same,log relative potency for eyes with vacuoles or more advanced cataracts,relative to Sarges Racemic,1.1114
